Source: article PMC9865645, “The Impact of N^ε-Acryloyllysine Piperazides on the Conformational Dynamics of Transglutaminase 2” (International Journal of Molecular Sciences, 2023)
Like-named read-outs stand apart in the source and are kept apart here.

Biological target: T1, self-produced hTGase 2 (Homo sapiens, UniProt P21980)
T1 construct: thrombin cleavage site (N); made in house; host or cells: E. coli BL21(DE3)
T1 sequence (P21980 1-687): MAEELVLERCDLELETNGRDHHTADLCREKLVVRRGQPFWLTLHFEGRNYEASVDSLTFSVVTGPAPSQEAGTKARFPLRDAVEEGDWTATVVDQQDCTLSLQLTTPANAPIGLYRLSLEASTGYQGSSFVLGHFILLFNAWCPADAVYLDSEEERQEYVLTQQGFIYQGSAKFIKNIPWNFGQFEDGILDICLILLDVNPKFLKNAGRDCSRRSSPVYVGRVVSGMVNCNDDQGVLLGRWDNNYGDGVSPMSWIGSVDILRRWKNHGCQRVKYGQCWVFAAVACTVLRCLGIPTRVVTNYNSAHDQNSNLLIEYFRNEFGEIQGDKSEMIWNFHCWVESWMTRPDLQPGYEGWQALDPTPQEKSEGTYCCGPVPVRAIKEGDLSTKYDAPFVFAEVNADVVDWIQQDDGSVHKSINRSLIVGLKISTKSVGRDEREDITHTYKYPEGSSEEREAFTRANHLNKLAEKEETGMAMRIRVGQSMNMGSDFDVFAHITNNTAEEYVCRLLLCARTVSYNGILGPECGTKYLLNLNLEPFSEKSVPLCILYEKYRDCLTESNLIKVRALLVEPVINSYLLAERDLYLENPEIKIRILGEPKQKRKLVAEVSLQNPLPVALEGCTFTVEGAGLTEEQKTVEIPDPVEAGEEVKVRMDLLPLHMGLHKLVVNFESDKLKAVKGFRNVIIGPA
Assay: native GTP-PAGE with increasing concentrations of inhibitor, band quantification
Assay type: biochemical
Conditions: 8.23 µM hTGase 2; for IC50: 50 µM GTP in gel and buffer
Protocol: Figure 8 Effect of increasing concentrations of inhibitor 2 on the activity and the conformation of hTGase 2. Native GTP-PAGE was performed on 7% separating gels. Both the gel and the running buffer contained 50 µM GTP without (A) and with an additional 500 µM MgCl2 (B). Samples of 8.23 µM self-produced hTGase 2 were first incubated for 30 min at 20 °C in 100 mM MOPS pH 8.0, 100 mM NaCl, 2.12% (v/v) DMSO, 5.33% (v/v) glycerol with CaCl2, GTP, MgCl2, and different concentrations of inhibitor 2, as indicated. GTP and/or MgCl2 were added as indicated, and all samples were incubated for 60 min at 20 °C. After adding native loading buffer, 6 µL of each sample containing 3 µg of hTGase 2 was loaded onto the gel. After electrophoretic separation, gels were stained with Coomassie Brilliant Blue G250, scanned, and the protein bands were quantified (Figure S7 in Supplementary Materials). Four species of hTGase 2, i.e., oligomers and slow-, intermediate-, and fast-migrating species, were identified, with slow- and intermediate-migrating species combined for the quantitative analysis. (C) Percentage of the signals of the three species per lane and (D) percentage of the oligomers’ signal plotted versus the concentration of inhibitor 2. (E) Signals of the slow-/intermediate-migrating and fast-migrating species were added and set to one. (F) Portion of the fast-migrating species in (E) was plotted against the concentration of inhibitor 2. The IC50 values in (D,F) were calculated by non-linear regression according to Equation (S29) in Supplementary Materials.
Sodium dodecyl sulfate-PAGE (SDS-PAGE) and native PAGE were performed on 4% stacking and 7% separating gels using Laemmli buffers (60 min with 120 V, 300 mA and 30 W at room temperature) and the same buffers without SDS (80 min with 120 V, 50 mA and 30 W at 4 °C), respectively. Buffers and gels were as follows: (i) for SDS-PAGE: stacking gel: 0.125 M TRIS pH 6.8, 4% (v/v) acrylamide-bisacrylamide, 0.1% (m/v) SDS; separating gel: 0.375 M TRIS pH 8.8, 7% (v/v) acrylamide-bisacrylamide, 0.1% (m/v) SDS; running buffer: 0.025 M TRIS pH 8.3, 0.2 M glycine, 0.1% (m/v) SDS; (ii) for native PAGE: the same buffers and gels were used without the addition of SDS. Native PAGE experiments, where 50 µM of GTP was added to the stacking and separating gels and the running buffer, are specified as “native GTP-PAGE” (with italic letters). In contrast, experiments without GTP are denoted as “native PAGE” (with italics letters). The term “native (GTP-)PAGE” (with italics letters) is used when we refer to both methods. Further conditions of the SDS-PAGE and native (GTP-)PAGE are detailed in the legends of Figure 7 and Figure 8 and Figures S4–S6 (Supplementary Materials). For the loading of samples onto the stacking gel, three parts of the sample solution were mixed with one part of the respective loading buffer. In the case of SDS-PAGE, SDS loading buffer (0.24 M TRIS, 40% (v/v) glycerol, 8% (m/v) SDS, 2% (v/v) 2-mercaptoethanol, and 0.08% (m/v) bromphenol blue) were used, followed by the denaturation of the mixture for 5 min at 60 °C. […] Afterward, the gels were scanned using a LI-COR Odyssey Fc Imager (700 channel) and analyzed using Image Studio software version 5.2.5. Detected bands were quantified based on the general procedure published by Wagstaff et al. and as detailed in legends to Figures S5 and S6. […]

IC50 (Gel A (w/o Mg^2+), read-out: IC50, percentage of the oligomers' signal (Figure 8D)): 5.58 µM | IC50 (Gel A (w/o Mg^2+), read-out: IC50, portion of the fast-migrating (closed) species of monomeric hTGase 2 (Figure 8F)): 5.28 µM | IC50 (Gel B (with Mg^2+, 500 µM MgCl2), read-out: IC50, percentage of the oligomers' signal (Figure 8D)): 5.71 µM | IC50 (Gel B (with Mg^2+, 500 µM MgCl2), read-out: IC50, portion of the fast-migrating (closed) species of monomeric hTGase 2 (Figure 8F)): 5.68 µM | ratio of the IC50 and the molar enzyme concentration (native GTP-PAGE, calculated from values in Figure 8D,F): 0.64–0.69
SMILES: C=CC(=O)NCCCC[C@H](NC(=O)Cc1ccccc1I)C(=O)N1CCN(c2ccc([N+](=O)[O-])nc2)CC1 [Compound 2, N^α-(2-Iodophenylacetyl)-N^ε-acryloyl-L-lysin-4-(2-nitropyridin-5-yl)piperazide]
